{"source": "ChEMBL document CHEMBL1932918", "about": "“AChE inhibitor: a regio- and stereo-selective 1,3-dipolar cycloaddition for the synthesis of novel substituted 5,6-dimethoxy spiro[5.3']-oxindole-spiro-[6.3″]-2,3-dihydro-1H-inden-1″-one-7-(substituted aryl)-tetrahydro-1H-pyrrolo[1,2-c][1,3]thiazole” (Bioorg Med Chem Lett, 2012)", "data": [{"molecular_target": "Acetylcholinesterase (Electrophorus electricus, UniProt O42275)", "sequence (O42275 whole entry)": "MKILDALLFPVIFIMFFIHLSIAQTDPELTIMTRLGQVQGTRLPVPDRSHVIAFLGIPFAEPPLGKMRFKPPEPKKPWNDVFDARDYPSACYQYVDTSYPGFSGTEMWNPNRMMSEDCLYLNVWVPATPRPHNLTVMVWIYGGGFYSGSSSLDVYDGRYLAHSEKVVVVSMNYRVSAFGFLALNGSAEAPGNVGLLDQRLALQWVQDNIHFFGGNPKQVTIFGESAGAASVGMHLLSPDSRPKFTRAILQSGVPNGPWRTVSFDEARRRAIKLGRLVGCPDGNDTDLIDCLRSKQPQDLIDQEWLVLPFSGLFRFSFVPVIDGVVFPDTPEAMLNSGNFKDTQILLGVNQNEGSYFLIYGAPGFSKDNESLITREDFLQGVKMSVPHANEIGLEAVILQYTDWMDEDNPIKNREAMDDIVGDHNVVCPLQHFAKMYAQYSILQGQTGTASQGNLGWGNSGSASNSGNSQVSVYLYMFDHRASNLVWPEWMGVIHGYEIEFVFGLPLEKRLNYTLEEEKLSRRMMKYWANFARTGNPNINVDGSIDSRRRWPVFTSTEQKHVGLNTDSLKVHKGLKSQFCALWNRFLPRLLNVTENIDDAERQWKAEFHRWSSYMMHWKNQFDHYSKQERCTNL", "assay": "Inhibition of electric eel AChE using […] measured every sec for 2 mins by Ellman's method", "units": {"IC50": "nM"}, "values": [{"compound": "COc1ccc(C2C3CSCN3C3(C(=O)Nc4ccc([N+](=O)[O-])cc43)C23Cc2cc(OC)c(OC)cc2C3=O)cc1OC", "note": "(stereo not given)", "IC50": 2100}, {"compound": "COc1cc2c(cc1OC)C(=O)C1(C2)C(c2ccccc2)C2CSCN2C12C(=O)Nc1ccccc12", "note": "(stereo not given)", "IC50": 5800}, {"compound": "COc1cc2c(cc1OC)C(=O)C1(C2)C(c2ccncc2)C2CSCN2C12C(=O)Nc1ccc(Cl)cc12", "note": "(stereo not given)", "IC50": 340}, {"compound": "COc1cc2c(cc1OC)C(=O)C1(C2)C(c2ccc(F)cc2)C2CSCN2C12C(=O)Nc1ccccc12", "note": "(stereo not given)", "IC50": 1120}, {"compound": "COc1cc2c(cc1OC)C(=O)C1(C2)C(c2ccncc2)C2CSCN2C12C(=O)Nc1ccccc12", "note": "(stereo not given)", "IC50": 480}, {"compound": "COc1cc2c(cc1OC)C(=O)C1(C2)C(c2ccncc2)C2CSCN2C12C(=O)Nc1ccc([N+](=O)[O-])cc12", "note": "(stereo not given)", "IC50": 110}, {"compound": "COc1cc2c(cc1OC)C(=O)C1(C2)C(c2ccccc2)C2CSCN2C12C(=O)Nc1ccc(Cl)cc12", "note": "(stereo not given)", "IC50": 2600}, {"compound": "COc1cc2c(cc1OC)C(=O)C1(C2)C(c2ccc(F)cc2)C2CSCN2C12C(=O)Nc1ccc(Cl)cc12", "note": "(stereo not given)", "IC50": 1560}, {"compound": "COc1cc2c(cc1OC)C(=O)C1(C2)C(c2ccc(F)cc2)C2CSCN2C12C(=O)Nc1ccc([N+](=O)[O-])cc12", "note": "(stereo not given)", "IC50": 1160}, {"compound": "COc1cc2c(cc1OC)C(=O)C1(C2)C(c2ccccc2)C2CSCN2C12C(=O)Nc1ccc([N+](=O)[O-])cc12", "note": "(stereo not given)", "IC50": 3160}, {"compound": "COc1ccc(C2C3CSCN3C3(C(=O)Nc4ccc(Cl)cc43)C23Cc2cc(OC)c(OC)cc2C3=O)cc1OC", "note": "(stereo not given)", "IC50": 2240}, {"compound": "COc1cc2c(cc1OC)C(=O)C1(C2)C(c2ccccc2Cl)C2CSCN2C12C(=O)Nc1ccccc12", "note": "(stereo not given)", "IC50": 8320}, {"compound": "COc1cc2c(cc1OC)C(=O)C1(C2)C(c2ccccc2Cl)C2CSCN2C12C(=O)Nc1ccc(Cl)cc12", "note": "(stereo not given)", "IC50": 3280}, {"compound": "COc1cc2c(cc1OC)C(=O)C1(C2)C(c2ccccc2Cl)C2CSCN2C12C(=O)Nc1ccc([N+](=O)[O-])cc12", "note": "(stereo not given)", "IC50": 2120}, {"compound": "COc1ccc(C2C3CSCN3C3(C(=O)Nc4ccccc43)C23Cc2cc(OC)c(OC)cc2C3=O)cc1OC", "note": "(stereo not given)", "IC50": 6200}]}]}
